From patent publication US10981911B2, “Imidazopyrrolopyridine as inhibitors of the JAK family of kinases” (Janssen Pharmaceutica NV, priority 2016, dated 2021)

Columns and labels:
Format in all cases: biochemical
JAK3-JH1JH2 = JAK3-JH1JH2 (Homo sapiens (Human), UniProt P52333); assay: Enzymatic inhibition assay (RapidFire HTMS), JAK3; details: 150 μM ATP, 40 μM substrate
Method in brief: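 JAK3 JH1JH2 reaction incubated 45 min at 25 °C, then quenched with 0.5% TFA containing 0.15 μM internal standard peptide. Phosphopeptide product measured by RapidFire C4 SPE–ESI MS (positive mode); inhibition from product decrease versus uninhibited enzyme, 11-point 1:3 or 1:4 dilutions in duplicate.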

Tyk2-JH1JH2 = Tyk2-JH1JH2 (Homo sapiens (Human), UniProt P29597, C1142A/C936A); assay: Enzymatic inhibition assay (RapidFire HTMS), Tyk2; details: 50 μM ATP, 200 μM substrate
Chain of Tyk2-JH1JH2 (P29597 580-1182 C936A/C1142A): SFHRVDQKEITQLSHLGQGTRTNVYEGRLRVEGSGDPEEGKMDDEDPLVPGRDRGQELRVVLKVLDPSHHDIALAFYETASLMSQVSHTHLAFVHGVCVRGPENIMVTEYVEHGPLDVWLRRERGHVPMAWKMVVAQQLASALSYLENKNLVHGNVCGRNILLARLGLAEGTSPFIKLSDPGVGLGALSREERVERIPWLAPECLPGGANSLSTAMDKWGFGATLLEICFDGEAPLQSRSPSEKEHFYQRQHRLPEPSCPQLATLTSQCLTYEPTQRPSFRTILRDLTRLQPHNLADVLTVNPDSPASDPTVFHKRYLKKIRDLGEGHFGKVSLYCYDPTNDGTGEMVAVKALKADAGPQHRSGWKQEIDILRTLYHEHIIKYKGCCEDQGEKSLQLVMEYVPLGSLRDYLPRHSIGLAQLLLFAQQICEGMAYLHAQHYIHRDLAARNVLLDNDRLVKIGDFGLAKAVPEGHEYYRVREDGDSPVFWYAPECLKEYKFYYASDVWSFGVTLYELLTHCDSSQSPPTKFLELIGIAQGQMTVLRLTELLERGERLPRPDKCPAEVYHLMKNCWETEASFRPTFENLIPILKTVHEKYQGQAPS
Method in brief: (§1)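 Quenched with 0.5% TFA plus internal-standard peptide; phosphorylated product quantified by RapidFire C4 SPE–ESI-MS, 11-point 1:3 or 1:4 dilutions in duplicate.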

JAK1-JH1JH2 = JAK1-JH1JH2 (Homo sapiens (Human), UniProt P23458); assay: Enzymatic inhibition assay (RapidFire HTMS), JAK1; details: 12.5 μM ATP, 200 μM substrate; read-out: JAK1-JH2JH1 IC50
Chain of JAK1-JH1JH2 (P23458 574-1154): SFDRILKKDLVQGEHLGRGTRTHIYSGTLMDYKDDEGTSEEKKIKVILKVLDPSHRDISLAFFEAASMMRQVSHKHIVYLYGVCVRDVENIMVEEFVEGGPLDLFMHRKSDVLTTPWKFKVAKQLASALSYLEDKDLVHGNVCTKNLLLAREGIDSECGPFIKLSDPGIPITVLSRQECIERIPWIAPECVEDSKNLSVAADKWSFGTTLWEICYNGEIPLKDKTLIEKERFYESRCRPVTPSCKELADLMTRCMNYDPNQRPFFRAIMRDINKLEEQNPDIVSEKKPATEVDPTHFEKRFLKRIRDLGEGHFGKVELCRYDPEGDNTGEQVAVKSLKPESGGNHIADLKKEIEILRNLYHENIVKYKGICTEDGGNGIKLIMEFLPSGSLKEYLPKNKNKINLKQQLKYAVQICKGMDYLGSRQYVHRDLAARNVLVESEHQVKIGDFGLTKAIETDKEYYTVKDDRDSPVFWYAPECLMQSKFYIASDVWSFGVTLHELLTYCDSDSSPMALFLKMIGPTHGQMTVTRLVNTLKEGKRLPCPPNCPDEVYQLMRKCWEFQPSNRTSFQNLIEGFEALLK
Method in brief: as §1

JAK2-JH1JH2 = JAK2-JH1JH2 (Homo sapiens (Human), UniProt O60674); assay: Enzymatic inhibition assay (RapidFire HTMS), JAK2; details: 30 μM ATP, 40 μM substrate
Chain of JAK2-JH1JH2 (O60674 532-1132): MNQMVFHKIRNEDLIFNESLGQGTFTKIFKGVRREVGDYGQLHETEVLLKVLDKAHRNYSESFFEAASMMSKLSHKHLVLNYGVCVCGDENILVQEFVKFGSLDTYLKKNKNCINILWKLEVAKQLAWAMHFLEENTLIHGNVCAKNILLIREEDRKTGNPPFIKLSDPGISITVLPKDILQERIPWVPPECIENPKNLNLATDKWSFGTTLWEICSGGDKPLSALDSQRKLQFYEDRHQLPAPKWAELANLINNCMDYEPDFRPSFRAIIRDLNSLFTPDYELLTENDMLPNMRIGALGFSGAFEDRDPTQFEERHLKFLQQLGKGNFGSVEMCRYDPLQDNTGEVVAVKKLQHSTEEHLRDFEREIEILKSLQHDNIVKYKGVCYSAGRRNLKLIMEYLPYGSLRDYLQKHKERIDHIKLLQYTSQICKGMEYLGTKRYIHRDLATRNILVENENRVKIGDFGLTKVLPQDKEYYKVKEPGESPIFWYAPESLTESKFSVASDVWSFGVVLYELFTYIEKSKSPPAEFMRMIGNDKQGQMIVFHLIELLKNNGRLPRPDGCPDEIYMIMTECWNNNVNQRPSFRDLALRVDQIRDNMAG
Method in brief: as §1

Chain of JAK3-JH1JH2 (P52333 512-1124): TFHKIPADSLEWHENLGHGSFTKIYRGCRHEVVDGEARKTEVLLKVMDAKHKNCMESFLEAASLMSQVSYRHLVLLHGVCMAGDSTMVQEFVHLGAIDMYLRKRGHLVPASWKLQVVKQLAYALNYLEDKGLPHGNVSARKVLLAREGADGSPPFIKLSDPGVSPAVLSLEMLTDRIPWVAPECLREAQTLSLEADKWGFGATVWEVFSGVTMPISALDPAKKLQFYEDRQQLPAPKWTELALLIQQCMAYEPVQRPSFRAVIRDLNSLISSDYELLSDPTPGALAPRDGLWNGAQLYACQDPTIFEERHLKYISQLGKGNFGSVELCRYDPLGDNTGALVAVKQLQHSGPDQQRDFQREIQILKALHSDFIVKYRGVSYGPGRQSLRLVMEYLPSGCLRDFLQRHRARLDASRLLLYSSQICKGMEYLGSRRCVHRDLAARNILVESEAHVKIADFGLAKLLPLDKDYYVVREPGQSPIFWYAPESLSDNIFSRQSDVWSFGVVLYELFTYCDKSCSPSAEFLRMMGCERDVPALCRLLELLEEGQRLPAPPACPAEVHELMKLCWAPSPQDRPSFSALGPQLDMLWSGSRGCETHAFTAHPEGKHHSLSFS

Structure (SMILES)	IC50 (JAK3-JH1JH2)	IC50 (Tyk2-JH1JH2)	IC50 (JAK1-JH1JH2)	IC50 (JAK2-JH1JH2)
CNC(=O)c1nc2cnc3[nH]ccc3c2n1[C@H]1CC[C@H](CC#N)CC1 [Ex. 133, 1-((1r,4r)-4-(Cyanomethyl)cyclohexyl)-N-methyl-1,6-dihydroimidazo[4,5-d]pyrrolo[2,3-b]pyridine-2-carboxamide]	154 nM	19.8 nM	0.8 nM	9.4 nM
CS(=O)(=O)N1CC(c2nc3cnc4[nH]ccc4c3n2[C@H]2CC[C@H](CC#N)CC2)C1 [Ex. 134, 2-((1r,4r)-4-(2-(1-(Methylsulfonyl)azetidin-3-yl)imidazo[4,5-d]pyrrolo[2,3-b]pyridin-1(6H)-yl)cyclohexyl)acetonitrile]	1290 nM	91.2 nM	0.8 nM	118 nM
CC(C)COC(=O)NCc1nc2cnc3[nH]ccc3c2n1[C@H]1CC[C@H](CC#N)CC1 [Ex. 137, Isobutyl ((1-((1r,4r)-4-(Cyanomethyl)cyclohexyl)-1,6-dihydroimidazo[4,5-d]pyrrolo[2,3-b]pyridin-2-yl)methyl)carbamate]	280 nM	14.2 nM	0.9 nM	25.1 nM
N#CCCNC(=O)c1nc2cnc3[nH]ccc3c2n1[C@H]1CC[C@H](CC#N)CC1 [Ex. 138, N-(2-Cyanoethyl)-1-((1r,4r)-4-(cyanomethyl)cyclohexyl)-1,6-dihydroimidazo[4,5-d]pyrrolo[2,3-b]pyridine-2-carboxamide]	195 nM	18.7 nM	0.9 nM	18.9 nM
N#CC[C@H]1CC[C@H](n2c(CNC(=O)C3CCCCC3)nc3cnc4[nH]ccc4c32)CC1 [Ex. 139, N-((1-((1r,4r)-4-(Cyanomethyl)cyclohexyl)-1,6-dihydroimidazo[4,5-d]pyrrolo[2,3-b]pyridin-2-yl)methyl)cyclohexanecarboxamide]	746 nM	53.5 nM	0.9 nM	66.9 nM
N#CC[C@H]1CC[C@H](n2c(C3NC(C4CC4)=NO3)nc3cnc4[nH]ccc4c32)CC1 (stereo partly drawn) [Ex. 140, 2-((1r,4r)-4-(2-(3-Cyclopropyl-4,5-dihydro-1,2,4-oxadiazol-5-yl)imidazo[4,5-d]pyrrolo[2,3-b]pyridin-1(6H)-yl)cyclohexyl)acetonitrile]	56.8 nM	14.9 nM	0.9 nM	4.5 nM
N#CC[C@H]1CC[C@H](n2c(CNS(=O)(=O)C3CCCCC3)nc3cnc4[nH]ccc4c32)CC1 [Ex. 141, N-((1-((1r,4r)-4-(Cyanomethyl)cyclohexyl)-1,6-dihydroimidazo[4,5-d]pyrrolo[2,3-b]pyridin-2-yl)methyl)cyclohexanesulfonamide]	4070 nM	66.7 nM	0.9 nM	95.8 nM
CS(C)(=O)=NCc1nc2cnc3[nH]ccc3c2n1[C@H]1CC[C@H](CC#N)CC1 [Ex. 142, 2-((1r,4r)-4-(2-(((Dimethyl(oxo)-λ^6-sulfanylidene)amino)methyl)imidazo[4,5-d]pyrrolo[2,3-b]pyridin-1(6H)-yl)cyclohexyl)acetonitrile]	383 nM	6.9 nM	0.9 nM	10 nM
N#CC[C@H]1CC[C@H](n2c(-c3ccc(S(F)(F)(F)(F)F)cc3)nc3cnc4[nH]ccc4c32)CC1 [Ex. 143, 2-((1r,4r)-4-(2-(4-(Pentafluoro-λ^6-sulfanyl)phenyl)imidazo[4,5-d]pyrrolo[2,3-b]pyridin-1(6H)-yl)cyclohexyl)acetonitrile]	1270 nM	117 nM	0.9 nM	38.5 nM
N#CC[C@H]1CC[C@H](n2c(CNC(=O)c3cn[nH]c3)nc3cnc4[nH]ccc4c32)CC1 [Ex. 144, N-((1-((1r,4r)-4-(Cyanomethyl)cyclohexyl)-1,6-dihydroimidazo[4,5-d]pyrrolo[2,3-b]pyridin-2-yl)methyl)-1H-pyrazole-4-carboxamide]	376 nM	16.2 nM	1 nM	43.1 nM
N#CC[C@H]1CC[C@H](n2c(COC(=O)NCC3CCCCC3)nc3cnc4[nH]ccc4c32)CC1 [Ex. 146, (1-((1r,4r)-4-(Cyanomethyl)cyclohexyl)-1,6-dihydroimidazo[4,5-d]pyrrolo[2,3-b]pyridin-2-yl)methyl (cyclohexylmethyl)carbamate]	319 nM	11.3 nM	1.1 nM	18 nM
CC(=O)N1CC(c2nc3cnc4[nH]ccc4c3n2[C@H]2CC[C@H](CC#N)CC2)C1 [Ex. 147, 2-((1r,4r)-4-(2-(1-Acetylazetidin-3-yl)imidazo[4,5-d]pyrrolo[2,3-b]pyridin-1(6H)-yl)cyclohexyl)acetonitrile]	1970 nM	87.9 nM	1.1 nM	315 nM
N#CC[C@H]1CC[C@H](n2c(CNC(=O)c3ccccc3)nc3cnc4[nH]ccc4c32)CC1 [Ex. 148, N-((1-((1r,4r)-4-(Cyanomethyl)cyclohexyl)-1,6-dihydroimidazo[4,5-d]pyrrolo[2,3-b]pyridin-2-yl)methyl)benzamide]	767 nM	36.2 nM	1.1 nM	50.4 nM
N#CC[C@H]1CC[C@H](n2c(CC(=O)N3CCC[C@@H]3CO)nc3cnc4[nH]ccc4c32)CC1 [Ex. 149, 2-((1r,4r)-4-(2-(2-((R)-2-(Hydroxymethyl)pyrrolidin-1-yl)-2-oxoethyl)imidazo[4,5-d]pyrrolo[2,3-b]pyridin-1(6H)-yl)cyclohexyl)acetonitrile]	926 nM	13.9 nM	1.1 nM	54.4 nM
CC(C)/C(N)=N/OCc1nc2cnc3[nH]ccc3c2n1[C@H]1CC[C@H](CC#N)CC1 [Ex. 150, (Z*)—N-((1-((1r,4r)-4-(Cyanomethyl)cyclohexyl)-1,6-dihydroimidazo[4,5-d]pyrrolo[2,3-b]pyridin-2-yl)methoxy)isobutyrimidamide]	110 nM	34 nM	1.2 nM	10 nM
N#CC[C@H]1CC[C@H](n2c(CO/N=C(\N)C3CC3)nc3cnc4[nH]ccc4c32)CC1 [Ex. 151, (Z*)—N-((1-((1r,4r)-4-(Cyanomethyl)cyclohexyl)-1,6-dihydroimidazo[4,5-d]pyrrolo[2,3-b]pyridin-2-yl)methoxy)cyclopropanecarboximidamide]	103 nM	37.1 nM	1.4 nM	10.6 nM
N#CC[C@H]1CC[C@H](n2c(CO/N=C(\N)C34CC5CC(CC(C5)C3)C4)nc3cnc4[nH]ccc4c32)CC1 [Ex. 152, (3R,5R,7R,E*)-N′-((1-((1r,4r)-4-(Cyanomethyl)cyclohexyl)-1,6-dihydroimidazo[4,5-d]pyrrolo[2,3-b]pyridin-2-yl)methoxy)adamantane-1-carboximidamide]	803 nM	53.5 nM	2.8 nM	21.2 nM
N#CC[C@H]1CC[C@H](n2c(CNC(=O)NCC3CCCCC3)nc3cnc4[nH]ccc4c32)CC1 [Ex. 155, 1-((1-((1r,4r)-4-(Cyanomethyl)cyclohexyl)-1,6-dihydroimidazo[4,5-d]pyrrolo[2,3-b]pyridin-2-yl)methyl)-3-(cyclohexylmethyl)urea]	368 nM	20.1 nM	1.3 nM	48.5 nM
N#CC[C@H]1CC[C@H](n2c(CNC(=N)C34CC5CC(CC(C5)C3)C4)nc3cnc4[nH]ccc4c32)CC1 [Ex. 156, (3R,5R,7R)—N-((1-((1r,4r)-4-(Cyanomethyl)cyclohexyl)-1,6-dihydroimidazo[4,5-d]pyrrolo[2,3-b]pyridin-2-yl)methyl)adamantane-1-carboximidamide]	1320 nM	2.9 nM	1.3 nM	33.6 nM
N#CCCC(=O)NCc1nc2cnc3[nH]ccc3c2n1[C@H]1CC[C@H](CC#N)CC1 [Ex. 157, 3-Cyano-N-((1-((1r,4r)-4-(cyanomethyl)cyclohexyl)-1,6-dihydroimidazo[4,5-d]pyrrolo[2,3-b]pyridin-2-yl)methyl)propanamide]	1110 nM	39.5 nM	1.4 nM	74.9 nM
CC(C)(C)OC(=O)NCc1nc2cnc3[nH]ccc3c2n1[C@H]1CC[C@H](CC#N)CC1 [Ex. 158, tert-Butyl ((1-((1r,4r)-4-(Cyanomethyl)cyclohexyl)-1,6-dihydroimidazo[4,5-d]pyrrolo[2,3-b]pyridin-2-yl)methyl)carbamate]	630 nM	59.5 nM	1.4 nM	77.9 nM
N#CC[C@H]1CC[C@H](n2c(C3CNC3)nc3cnc4[nH]ccc4c32)CC1 [Ex. 159, 2-((1r,4r)-4-(2-(Azetidin-3-yl)imidazo[4,5-d]pyrrolo[2,3-b]pyridin-1(6H)-yl)cyclohexyl)acetonitrile]	1230 nM	19 nM	1.6 nM	57 nM
N#CCC(=O)N1CC(c2nc3cnc4[nH]ccc4c3n2[C@H]2CC[C@H](CC#N)CC2)C1 [Ex. 160, 3-(3-(1-((1r,4r)-4-(Cyanomethyl)cyclohexyl)-1,6-dihydroimidazo[4,5-d]pyrrolo[2,3-b]pyridin-2-yl)azetidin-1-yl)-3-oxopropanenitrile]	1080 nM	52.4 nM	1.5 nM	87.1 nM
COCCNC(=O)OCc1nc2cnc3[nH]ccc3c2n1[C@H]1CC[C@H](CC#N)CC1 [Ex. 161, (1-((1r,4r)-4-(Cyanomethyl)cyclohexyl)-1,6-dihydroimidazo[4,5-d]pyrrolo[2,3-b]pyridin-2-yl)methyl (2-methoxyethyl)carbamate]	260 nM	20 nM	1.6 nM	20 nM
